According to patent US11814364B2, “Pyridine N-oxide derivatives useful as factor XIa inhibitors” (Janssen Pharmaceutica NV, priority 2021, dated 2023):

Target: human plasma kallikrein (Homo sapiens, UniProt P03952)
Experiment: Kallikrein inhibition FLINT assay with quenched AMC peptide substrate Z-Gly-Pro-Arg-AMC (end point EP or kinetic KIN reads)
Assay type: biochemical
Conditions: kinetic reads at 5 min intervals over 30 min; read-out: Kallikrein (KIN) IC50
Summary of the method: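 Enzyme and compound were preincubated 30 min before adding 50 μM AMC substrate in pH 7.5 Tris/NaCl/CaCl2/BSA/CHAPS buffer. AMC release was read at 30 min endpoint or every 5 min.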

Sequence of human plasma kallikrein (P03952 391-638 limits assumed): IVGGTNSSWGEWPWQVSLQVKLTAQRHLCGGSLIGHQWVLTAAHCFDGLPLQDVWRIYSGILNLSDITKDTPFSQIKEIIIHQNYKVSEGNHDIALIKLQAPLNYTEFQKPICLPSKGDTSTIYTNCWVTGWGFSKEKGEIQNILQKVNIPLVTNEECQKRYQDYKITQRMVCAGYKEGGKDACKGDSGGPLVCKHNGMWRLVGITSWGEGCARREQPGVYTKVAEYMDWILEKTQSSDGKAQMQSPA
Sequence of human plasma kallikrein (P03952 20-390 partner limits assumed): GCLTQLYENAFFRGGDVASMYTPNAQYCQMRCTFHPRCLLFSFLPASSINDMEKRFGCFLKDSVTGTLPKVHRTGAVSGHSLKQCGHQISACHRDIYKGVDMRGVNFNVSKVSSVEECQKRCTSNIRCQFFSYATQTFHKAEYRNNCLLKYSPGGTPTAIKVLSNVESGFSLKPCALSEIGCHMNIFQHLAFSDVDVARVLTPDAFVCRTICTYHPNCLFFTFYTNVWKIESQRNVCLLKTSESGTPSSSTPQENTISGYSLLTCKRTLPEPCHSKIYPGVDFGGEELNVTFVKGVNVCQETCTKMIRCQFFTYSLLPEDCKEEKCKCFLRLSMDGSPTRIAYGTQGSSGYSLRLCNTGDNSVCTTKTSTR

SMILES	IC50 [nM]
NC(=O)C1CC1CC(c1ccc(-c2c(-n3cnnn3)ccc(Cl)c2F)c[n+]1[O-])n1cc(-c2ccncc2)cn1 (stereo not shown) [Example P260]	72.5
Nc1ncc(-c2cnn(C(Cc3ccc(Cl)cc3)c3ccc(-c4c(-n5cnnn5)ccc(Cl)c4F)c[n+]3[O-])c2)cc1F (stereo not shown) [Example P162]	6.8
[O-][n+]1cc(-c2c(-n3cnnn3)ccc(Cl)c2F)ccc1[C@@H](Cc1cn(C(F)F)nn1)n1cc(-c2ccnc(C(F)(F)F)c2)cn1 [Example P748]	6.4
CC(=O)N(C)CC(c1ccc(-c2c(-n3cnnn3)ccc(Cl)c2F)c[n+]1[O-])n1cc(-c2ccnc(C(F)(F)F)c2)cn1 (single isomer, unassigned) [Example P404]	68.4
CC(C)C(=O)N(C)CC(c1ccc(-c2c(-n3cnnn3)ccc(Cl)c2F)c[n+]1[O-])n1cc(-c2ccnc(C(F)(F)F)c2)cn1 (single isomer, unassigned) [Example P421]	41.1
COCC[C@H](c1ccc(-c2c(-n3cnnn3)ccc(Cl)c2F)c[n+]1[O-])n1cc(-c2ccn(C(F)F)n2)cn1 [Example P560]	102
[O-][n+]1cc(-c2c(-n3cnnn3)ccc(Cl)c2F)ccc1[C@H](Cc1ccc(F)cc1)n1cc(-c2ccnn2C(F)F)cn1 [Example P566]	67.6
COC(=O)Nc1ccc(-c2cnn(C(Cc3cccc(OC)c3)c3ccc(-c4c(-n5cnnn5)ccc(Cl)c4F)c[n+]3[O-])c2)cc1 (single isomer, unassigned) [Example P207]	2.9
O=C(O)C1CCCN(C(=O)C2CC2CC(c2ccc(-c3c(-n4cnnn4)ccc(Cl)c3F)c[n+]2[O-])n2cc(-c3ccccc3)cn2)C1 (stereo not shown) [Example P224]	591
O=C(NC1CC1)c1ccc(-c2cnn(C(Cc3ccc(F)cc3)c3ccc(-c4c(-n5cnnn5)ccc(Cl)c4F)c[n+]3[O-])c2)cc1 (stereo not shown) [Example P125]	3.3
Cn1ncc(-c2cnn(C(CC3CC3)c3cc(Cl)c(-c4c(-n5cnnn5)ccc(Cl)c4F)c[n+]3[O-])c2)cc1=O (single isomer, unassigned) [Example P190]	49.2
Cn1ncc(-c2cnn(C(Cc3ccc(F)cc3)c3ccc(-c4c(-n5cnnn5)ccc(Cl)c4F)c[n+]3[O-])c2)cc1=O (stereo not shown) [Example P116]	26.2
COC(=O)Nc1ccc(-c2cnn(C(CC3CC3C(=O)N3CCCCC3)c3ccc(-c4c(-n5cnnn5)ccc(Cl)c4F)c[n+]3[O-])c2)cc1 (stereo not shown) [Example P231]	366
COC(=O)Nc1ccc(-c2cnn(C(Cc3ccccc3)c3ccc(-c4c(-n5cnnn5)ccc(Cl)c4F)c[n+]3[O-])c2)cc1 (stereo not shown) [Example P71]	7.5
O=C(Nc1ccnc(F)c1-c1cnn(C(Cc2ccc(F)cc2)c2ccc(-c3c(-c4cnco4)ccc(Cl)c3F)c[n+]2[O-])c1)C1CC1 (stereo not shown) [Example P148]	350
CN(CC(c1ccc(-c2c(-n3cnnn3)ccc(Cl)c2F)c[n+]1[O-])n1cc(-c2ccncc2)cn1)C(=O)c1ccccc1 (stereo not shown) [Example P296]	36.4
COC(=O)Nc1ccc(-c2cnn(C(Cn3cccn3)c3ccc(-c4c(-n5cnnn5)ccc(Cl)c4F)c[n+]3[O-])c2)cc1 (stereo not shown) [Example P214]	6.3
Cc1cc(-c2cnn(C(Cn3cc(F)cn3)c3ccc(-c4c(-n5cnnn5)ccc(Cl)c4F)c[n+]3[O-])c2)cc[n+]1[O-] (stereo not shown) [Example P472]	40.7
Cn1ncc(C[C@@H](c2ccc(-c3c(-n4cc(Cl)nn4)ccc(Cl)c3F)c[n+]2[O-])n2cc(-c3ccnc(C(F)(F)F)c3)cn2)n1 [Example P715]	830

SMILES	IC50 [nM]
Cn1nncc1-c1cnn([C@H](Cc2ccc(F)cc2)c2ccc(-c3c(-n4cc(OC(F)F)nn4)ccc(Cl)c3F)c[n+]2[O-])c1 [Example P635]	3.4
[O-][n+]1cc(-c2c(-n3cnnn3)ccc(Cl)c2F)ccc1C(Cc1ccc(F)cc1)n1cc(-c2c(Cl)nnn2C(F)F)cn1 (single isomer, unassigned) [Example P589]	520
[O-][n+]1cc(-c2c(-n3cc(Cl)nn3)ccc(Cl)c2F)ccc1[C@@H](CCOC(F)F)n1cc(-c2ncnn2C(F)F)cn1 [Example P683]	29.5
CCCC(c1ccc(-c2c(-n3cnnn3)ccc(Cl)c2F)c[n+]1[O-])n1cc(-c2ccc(NC(=O)OC)cc2)cn1 (single isomer, unassigned) [Example P158]	45.1
[O-][n+]1cc(-c2c(-n3cc(Cl)nn3)ccc(Cl)c2F)ccc1[C@@H](Cn1cc(F)cn1)n1cc(-c2ccnn2C(F)F)cn1 [Example P643]	50.5
O=C(O)c1ccc(-c2cnn(C(Cc3ccc(Cl)cc3)c3ccc(-c4cc(Cl)ccc4-n4cnnn4)c[n+]3[O-])c2)cc1 (stereo not shown) [Example P57]	3.8
CN(CC(c1ccc(-c2c(-n3cnnn3)ccc(Cl)c2F)c[n+]1[O-])n1cc(-c2ccnc(C(F)(F)F)c2)cn1)C(=O)c1ccn(C)c(=O)c1 (single isomer, unassigned) [Example P434]	427
COC(=O)Nc1ccc(-c2cnn(C(Cc3ccc(Cl)cc3)c3ccc(-c4c(-n5cnnn5)ccc(Cl)c4F)c[n+]3[O-])c2)cc1 (single isomer, unassigned) [Example P159]	215
[O-][n+]1cc(-c2cc(Cl)ccc2-n2cnnn2)ccc1C(Cc1ccc(Cl)cc1)n1cc(-c2ccnc(C(F)(F)F)c2)cn1 (stereo not shown) [Example P250]	45.9
Cn1ncc(Cl)c1-c1cnn(C(CC2CC2)c2ccc(-c3c(-n4cnnn4)ccc(Cl)c3F)c[n+]2[O-])c1 (stereo not shown) [Example P555]	573
O=C(NC1CC1)c1ccc(-c2cnn(C(CC3CCCCO3)c3ccc(-c4c(-n5cnnn5)ccc(Cl)c4F)c[n+]3[O-])c2)cc1 (single isomer, unassigned) [Example P143]	58.1
COCC(=O)N(C)CC(c1ccc(-c2c(-n3cnnn3)ccc(Cl)c2F)c[n+]1[O-])n1cc(-c2ccnc(C(F)(F)F)c2)cn1 (stereo not shown) [Example P427]	66.8
[O-][n+]1cc(-c2c(-n3cnnn3)ccc(Cl)c2F)ccc1C(CC1CC1)n1cc(-c2ccnc(OC(F)F)c2)cn1 (stereo not shown) [Example P313]	151
[O-][n+]1cc(-c2c(-n3cc(Cl)nn3)ccc(Cl)c2F)ccc1C(Cn1cc(F)cn1)n1cc(-c2ccnc(C(F)(F)F)c2)cn1 (single isomer, unassigned) [Example P480]	31.2
Cn1nnc(F)c1-c1cnn(C(CC2CC2)c2ccc(-c3c(-n4cnnn4)ccc(Cl)c3F)c[n+]2[O-])c1 (stereo not shown) [Example P743]	> 100
COC(=O)Nc1ccc(-c2cnn(C(CC3CCCCO3)c3ccc(-c4c(-n5cnnn5)ccc(Cl)c4F)c[n+]3[O-])c2)cc1 (single isomer, unassigned) [Example P127]	70.1
[O-][n+]1cc(-c2c(-n3cc(C4CC4)nn3)ccc(Cl)c2F)ccc1C(Cn1cc(F)cn1)n1cc(-c2ccnc(C(F)(F)F)c2)cn1 (stereo not shown) [Example P485]	670
COC(=O)Nc1ccc(-c2cnn(C(Cc3ccn(C)n3)c3ccc(-c4c(-n5cnnn5)ccc(Cl)c4F)c[n+]3[O-])c2)cc1 (single isomer, unassigned) [Example P329]	49.6

The next lines start with the values.

IC50 [nM]	SMILES
16.2	[O-][n+]1cc(-c2c(-n3cnnn3)ccc(Cl)c2F)ccc1[C@@H](CCOC(F)F)n1cc(-c2cncn2C(F)F)cn1 [Example P771]
613	N#Cc1cnn(CC(c2ccc(-c3c(-n4cc(C(F)(F)F)nn4)ccc(Cl)c3F)c[n+]2[O-])n2cc(-c3ccc(C(N)=O)c(F)c3)cn2)c1 (stereo not shown) [Example P955]
17.4	[O-][n+]1cc(-c2c(-n3cc(Br)nn3)ccc(Cl)c2F)ccc1[C@@H](CCOC(F)F)n1cc(-c2ncnn2C(F)F)cn1 [Example P788]
19.8	Cn1nnc(F)c1-c1cnn(C(CCOC(F)F)c2ccc(-c3c(-n4cnnn4)ccc(Cl)c3F)c[n+]2[O-])c1 (stereo not shown) [Example P749]
305	O=C(O)c1ccc(-c2cnn(C(CC3CC3)c3ccc(-c4c(C(F)F)ccc(Cl)c4F)c[n+]3[O-])c2)cc1 (stereo not shown) [Example Q16]
41.4	Cn1ncnc1-c1cnn(C(CC2CC2)c2ccc(-c3c(-n4cc(C(F)(F)F)nn4)ccc(Cl)c3F)c[n+]2[O-])c1 (stereo not shown) [Example P874]
31.9	Cn1ncnc1-c1cnn(C(CCOC(F)F)c2ccc(-c3c(-n4cc(C(F)(F)F)nn4)ccc(Cl)c3F)c[n+]2[O-])c1 (stereo not shown) [Example P757]
477	NC(=O)c1ccc(-c2cnn(C(Cc3ccn(C(F)F)n3)c3ccc(-c4c(C(F)F)ccc(Cl)c4F)c[n+]3[O-])c2)cc1F (single isomer, unassigned) [Example Q66]
17.8	Nc1ccc(-c2cnn(C(Cn3cc(F)cn3)c3ccc(-c4c(C(F)F)ccc(Cl)c4F)c[n+]3[O-])c2)c(F)n1 (single isomer, unassigned) [Example Q25]
326	Cn1ncnc1-c1cnn(C(CC2CNCCO2)c2ccc(-c3c(-n4cc(C(F)(F)F)nn4)ccc(Cl)c3F)c[n+]2[O-])c1 (stereo not shown) [Example P934]
346	CC(=O)Nc1cnc(C(F)(F)F)cc1-c1cnn(C(CC2CC2)c2ccc(-c3c(-n4cnnn4)ccc(Cl)c3F)c[n+]2[O-])c1 (single isomer, unassigned) [Example P842]
487	Cn1ncnc1-c1cnn(C(Cc2nnco2)c2ccc(-c3c(-n4cc(C(F)(F)F)nn4)ccc(Cl)c3F)c[n+]2[O-])c1 (stereo not shown) [Example P935]
231	Cn1ncnc1-c1cnn(C(CCOC(F)F)c2ccc(-c3c(N)ccc(Cl)c3F)c[n+]2[O-])c1 (stereo not shown) [Example Q45]
753	CCC(c1cc(OC)c(-c2cc(Cl)ccc2C#N)c[n+]1[O-])n1cc(-c2ncnn2C(F)F)cn1 (stereo not shown) [Example Q54]
7.2	[2H]C([2H])([2H])OC([2H])([2H])CC(c1ccc(-c2c(-n3cc(C(F)(F)F)nn3)ccc(Cl)c2F)c[n+]1[O-])n1cc(-c2ccc(C(N)=O)c(F)c2)cn1 (single isomer, unassigned) [Example P913]
3.9	COc1cc(C(CC2CC2)n2cc(-c3ncnn3C(F)F)cn2)[n+]([O-])cc1-c1cc(Cl)ccc1-n1cnnn1 (single isomer, unassigned) [Example P917]
238	Cn1nnc(F)c1-c1cnn(C(CCOC(F)F)c2ccc(-c3c(-c4cnco4)ccc(Cl)c3F)c[n+]2[O-])c1 (stereo not shown) [Example P846]
85.6	Cc1nc(C(F)(F)F)sc1-c1cnn(C(CC2CC2)c2ccc(-c3c(-n4cnnn4)ccc(Cl)c3F)c[n+]2[O-])c1 (single isomer, unassigned) [Example P961]
